Results published in patent publication US9302999B2, “Substituted triazoles as herbicides” (E. I. DU PONT DE NEMOURS AND COMPANY, priority 2012, dated 2016).
Where two headings read alike, the source gives them in different places.

Experiments:
Format in all cases: in vivo
[1] = test system: barnyardgrass (Echinochloa crus-galli); experiment: Test A pre-/postemergence: barnyardgrass; details: for pest or weed control at 125 g/ha / pest or weed control at 500 g/ha: Echinochloa crus-galli, 240 h
Procedure, shortened: (§1)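 Injury was scored visually on a 0 (no effect) to 100 (complete control) scale versus untreated controls roughly ten days after treatment in the greenhouse. Compounds, formulated in surfactant-containing non-phytotoxic solvent, went on as soil-directed preemergence spray or postemergence to one- to two-leaf plants 2–10 cm tall.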

[2] = test system: morningglory (Ipomoea spp.); experiment: Test A pre-/postemergence: morningglory; details: for pest or weed control at 125 g/ha / pest or weed control at 500 g/ha: Ipomoea, 240 h
Procedure, shortened: as §1

corn (Zea mays) = experiment: Test A pre-/postemergence: corn
Procedure, shortened: as §1

rice (Oryza sativa) = experiment: Test B flooded paddy: rice; details: Flood, applied to paddy water at 2-leaf stage, visually evaluated after 13 to 15 days
Procedure, shortened: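 Each compound is applied to the floodwater of pots holding 2-leaf seedlings, water standing 3 cm over the soil throughout. Plants stay in a greenhouse 13 to 15 days before visual scoring against controls from 0 (no effect) to 100 (complete control).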

[3] = test system: galium (catchweed bedstraw, Galium aparine); experiment: Test C pre-/postemergence: galium
Procedure, shortened: (§2)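 Visual injury scored 0–100 (100 = complete control) against untreated controls after 13–15 greenhouse days. Surfactant-containing solvent formulations applied either to soil after sowing (loam/sand) or over 1- to 4-leaf plants, 2–18 cm tall.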

[4] = test system: johnsongrass (Sorghum halepense); experiment: Test C pre-/postemergence: johnsongrass
Procedure, shortened: as §2

kochia (Kochia scoparia) = experiment: Test C pre-/postemergence: kochia
Procedure, shortened: as §2

[5] = test system: lambsquarters (Chenopodium album); experiment: Test C pre-/postemergence: lambsquarters
Procedure, shortened: as §2

[6] = test system: ragweed (common ragweed, Ambrosia elation); experiment: Test C pre-/postemergence: ragweed
Procedure, shortened: as §2

[7] = test system: velvetleaf (Abutilon theophrasti); experiment: Test C pre-/postemergence: velvetleaf
Procedure, shortened: as §2

[8] = Postemergence, 125 g ai/ha, 0 to 100 scale, 0 is no effect, 100 is complete control
[9] = Postemergence, 500 g ai/ha, 0 to 100 scale, 0 is no effect, 100 is complete control
[10] = Preemergence, 125 g ai/ha, 0 to 100 scale where 0 is no effect and 100 is complete control
[11] = Preemergence, 500 g ai/ha, 0 to 100 scale (0 no effect, 100 complete control)
[12] = Postemergence, 31 g ai/ha, scale 0 to 100 (0 no effect, 100 complete control)
[13] = Postemergence, 62 g ai/ha, scale 0 to 100 (0 no effect, 100 complete control)
[14] = Postemergence, 125 g ai/ha, scale 0 to 100, 0 no effect, 100 complete control
[15] = Postemergence, 250 g ai/ha, scale 0 to 100 (0 no effect, 100 complete control)
[16] = Preemergence, 31 g ai/ha, scale 0 (no effect) to 100 (complete control)
[17] = Preemergence, 62 g ai/ha, scale of 0 to 100, 0 is no effect, 100 is complete control
[18] = Preemergence, 125 g ai/ha, scale 0 to 100, 0 no effect, 100 complete control
[19] = Preemergence, 250 g ai/ha, scale 0 to 100, 0 no effect, 100 complete control
[20] = Preemergence, 62 g ai/ha, scale 0 to 100, 0 no effect, 100 complete control

Structure (SMILES): CCOc1nn(-c2ccc(Cl)cc2)nc1Cc1ccnc(C(F)(F)F)c1 [Compound 188]
- Plant response rating, Barnyardgrass [1, 8]: 90
- Barnyardgrass plant response rating [1, 9]: 90
- Plant response rating, Barnyardgrass [1, 10]: 90
- Plant response rating, Barnyardgrass [1, 11]: 100
- Plant response rating, Morningglory [2, 8]: 90
- Morningglory plant response rating [2, 9]: 100
- Plant response rating, Morningglory [2, 10]: 20
- Plant response rating, Morningglory [2, 11]: 90
- Plant response rating, Corn (corn (Zea mays); [8]): 40
- Corn plant response rating (corn (Zea mays); [9]): 50
- Plant response rating, Corn (corn (Zea mays); [10]): 10
- Plant response rating, Corn (corn (Zea mays); [11]): 20
- Plant response rating, Rice (0 to 100 scale, 0 is no effect, 100 is complete control) (rice (Oryza sativa); 125 g ai/ha): 50
- Plant response rating, Galium [3, 12]: 60
- Plant response rating, Galium [3, 13]: 80
- Plant response rating, Galium [3, 14]: 85
- Plant response rating, Galium [3, 15]: 90
- Plant response rating, Galium [3, 16]: 90
- Plant response rating, Galium [3, 17]: 90
- Plant response rating, Galium [3, 18]: 95
- Plant response rating, Galium [3, 19]: 95
- Plant response rating, Johnsongrass [4, 12]: 45
- Plant response rating, Johnsongrass [4, 13]: 75
- Plant response rating, Johnsongrass [4, 14]: 95
- Plant response rating, Johnsongrass [4, 15]: 98
- Plant response rating, Johnsongrass [4, 16]: 55
- Plant response rating, Johnsongrass [4, 17]: 85
- Plant response rating, Johnsongrass [4, 18]: 95
- Plant response rating, Johnsongrass [4, 19]: 98
- Plant response rating, Kochia (kochia (Kochia scoparia); [12]): 70
- Plant response rating, Kochia (kochia (Kochia scoparia); [13]): 90
- Plant response rating, Kochia (kochia (Kochia scoparia); [14]): 90
- Plant response rating, Kochia (kochia (Kochia scoparia); [15]): 90
- Plant response rating, Lambsquarters [5, 12]: 90
- Plant response rating, Lambsquarters [5, 13]: 95
- Plant response rating, Lambsquarters [5, 14]: 98
- Plant response rating, Lambsquarters [5, 15]: 98
- Plant response rating, Lambsquarters [5, 16]: 90
- Plant response rating, Lambsquarters [5, 17]: 90
- Plant response rating, Lambsquarters [5, 18]: 98
- Plant response rating, Lambsquarters [5, 19]: 100
- Plant response rating, Ragweed [6, 12]: 65
- Plant response rating, Ragweed [6, 13]: 75
- Plant response rating, Ragweed [6, 14]: 85
- Plant response rating, Ragweed [6, 15]: 85
- Plant response rating, Velvetleaf [7, 12]: 50
- Plant response rating, Velvetleaf [7, 13]: 65
- Plant response rating, Velvetleaf [7, 14]: 70
- Plant response rating, Velvetleaf [7, 15]: 70
- Plant response rating, Velvetleaf [7, 16]: 45
- Plant response rating, Velvetleaf [7, 17]: 65
- Plant response rating, Velvetleaf [7, 18]: 85
- Plant response rating, Velvetleaf [7, 19]: 90

Structure (SMILES): CCOc1nn(-c2ccc(F)cc2)nc1Cc1ccnc(C(F)(F)F)c1 [Compound 196, 4-[[5-ethoxy-2-(4-fluorophenyl)-2H-1,2,3-triazol-4-yl]methyl]-2-(trifluoromethyl)pyridine]
- pest or weed control at 125 g/ha ([1]; post-emergence, Postemergence, 125 g ai/ha, 0 to 100 scale, 0 is no effect, 100 is complete control, read-out: Plant response rating, Barnyardgrass): 80%
- pest or weed control at 500 g/ha ([1]; post-emergence, Postemergence, 500 g ai/ha, 0 to 100 scale, 0 is no effect, 100 is complete control, read-out: Barnyardgrass plant response rating): 90%
- pest or weed control at 125 g/ha ([1]; pre-emergence, Preemergence, 125 g ai/ha, 0 to 100 scale where 0 is no effect and 100 is complete control, read-out: Plant response rating, Barnyardgrass): 100%
- pest or weed control at 500 g/ha ([1]; pre-emergence, Preemergence, 500 g ai/ha, 0 to 100 scale (0 no effect, 100 complete control), read-out: Plant response rating, Barnyardgrass): 100%
- pest or weed control at 125 g/ha ([2]; post-emergence, Postemergence, 125 g ai/ha, 0 to 100 scale, 0 is no effect, 100 is complete control, read-out: Plant response rating, Morningglory): 100%
- pest or weed control at 500 g/ha ([2]; post-emergence, Postemergence, 500 g ai/ha, 0 to 100 scale, 0 is no effect, 100 is complete control, read-out: Morningglory plant response rating): 100%
- pest or weed control at 125 g/ha ([2]; pre-emergence, Preemergence, 125 g ai/ha, 0 to 100 scale where 0 is no effect and 100 is complete control, read-out: Plant response rating, Morningglory): 60%
- pest or weed control at 500 g/ha ([2]; pre-emergence, Preemergence, 500 g ai/ha, 0 to 100 scale (0 no effect, 100 complete control), read-out: Plant response rating, Morningglory): 90%
- Corn plant response rating (crop injury, 0 = no effect, 100 = complete kill) at 125 g/ha (corn (Zea mays); Zea mays, post-emergence, 240 h, Postemergence, 125 g ai/ha, 0 to 100 scale, 0 is no effect, 100 is complete control): 70%
- plant injury at 500 g/ha (corn (Zea mays); Zea mays, post-emergence, 240 h, Postemergence, 500 g ai/ha, 0 to 100 scale, 0 is no effect, 100 is complete control, read-out: Corn plant response rating): 80%
- Corn plant response rating (crop injury, 0 = no effect, 100 = complete kill) at 125 g/ha (corn (Zea mays); Zea mays, pre-emergence, 240 h, Preemergence, 125 g ai/ha, 0 to 100 scale where 0 is no effect and 100 is complete control): 30%
- Corn plant response rating (crop injury, 0 = no effect, 100 = complete kill) at 500 g/ha (corn (Zea mays); Zea mays, pre-emergence, 240 h, Preemergence, 500 g ai/ha, 0 to 100 scale (0 no effect, 100 complete control)): 50%
- Plant response rating, Rice (0 to 100 scale, 0 is no effect, 100 is complete control) (rice (Oryza sativa); 250 g ai/ha): 70
- Plant response rating, Galium [3, 12]: 80
- Plant response rating, Galium [3, 13]: 85
- Plant response rating, Galium [3, 14]: 90
- Plant response rating, Galium [3, 15]: 95
- Plant response rating, Galium [3, 16]: 85
- Plant response rating, Galium [3, 20]: 95
- Plant response rating, Galium [3, 18]: 98
- Plant response rating, Galium [3, 19]: 100
- Plant response rating, Johnsongrass [4, 12]: 80
- Plant response rating, Johnsongrass [4, 13]: 90
- Plant response rating, Johnsongrass [4, 14]: 90
- Plant response rating, Johnsongrass [4, 15]: 95
- Plant response rating, Johnsongrass [4, 16]: 98
- Plant response rating, Johnsongrass [4, 20]: 100
- Plant response rating, Johnsongrass [4, 19]: 100
- Plant response rating, Kochia (kochia (Kochia scoparia); [12]): 85
- Plant response rating, Kochia (kochia (Kochia scoparia); [13]): 90
- Plant response rating, Kochia (kochia (Kochia scoparia); [14]): 90
- Plant response rating, Kochia (kochia (Kochia scoparia); [15]): 90
- Plant response rating, Kochia (kochia (Kochia scoparia); [16]): 90
- Plant response rating, Kochia (kochia (Kochia scoparia); [20]): 98
- Plant response rating, Kochia (kochia (Kochia scoparia); [18]): 98
- Plant response rating, Kochia (kochia (Kochia scoparia); [19]): 98
- Plant response rating, Lambsquarters [5, 12]: 95
- Plant response rating, Lambsquarters [5, 13]: 95
- Plant response rating, Lambsquarters [5, 14]: 95
- Plant response rating, Lambsquarters [5, 15]: 95
- Plant response rating, Lambsquarters [5, 16]: 85
- Plant response rating, Lambsquarters [5, 20]: 90
- Plant response rating, Lambsquarters [5, 18]: 95
- Plant response rating, Lambsquarters [5, 19]: 95
- Plant response rating, Ragweed [6, 12]: 70
- Plant response rating, Ragweed [6, 13]: 85
- Plant response rating, Ragweed [6, 14]: 90
- Plant response rating, Ragweed [6, 15]: 90
- Plant response rating, Ragweed [6, 16]: 40
- Plant response rating, Ragweed [6, 20]: 60
- Plant response rating, Ragweed [6, 18]: 80
- Plant response rating, Ragweed [6, 19]: 90
- Plant response rating, Velvetleaf [7, 12]: 55
- Plant response rating, Velvetleaf [7, 13]: 65
- Plant response rating, Velvetleaf [7, 14]: 75
- Plant response rating, Velvetleaf [7, 15]: 80
- Plant response rating, Velvetleaf [7, 16]: 60
- Plant response rating, Velvetleaf [7, 20]: 70
- Plant response rating, Velvetleaf [7, 18]: 80
- Plant response rating, Velvetleaf [7, 19]: 100
